Results on six compounds are retold here after paper PMC10673511, “Design, Synthesis and Bioactivity Evaluation of Heterocycle-Containing Mono- and Bisphosphonic Acid Compounds” (Molecules, 2023).

One data set relates to Brassica napus L. Description: Pre-emergence herbicidal inhibition assay, Petri dish test, BN. The class given is in vivo. The settings on record: for EC50: Brassica napus, 168 h; for Relative activity ratio (BN root) / Relative activity ratio (BN stalk): relative to FOS. As to the method:
(§1) The pre-emergence activity of the compounds against monocot Echinochloa crus-galli (EC) and dicot Brassica napus L. (BN) was evaluated using the standard Petri dish test. The compounds were dissolved in DMF, emulsified with Tween-80 and diluted with water to form stock solutions, each of which was further diluted to a gradient of 100, 50, 25, 10 and 1 mg/L for test. The test solutions were added to Petri dishes lined with a filter paper, on which 10 seeds of EC and BN were placed. After cultured in an intelligent climate chamber with a humidity of 65% at 26 °C for 7 days, the corresponding EC50 values were calculated.

Data set [1] concerns Echinochloa crus-galli. Description: Pre-emergence herbicidal inhibition assay, Petri dish test, EC. Conditions: for EC50: Echinochloa crus-galli, 168 h; for Relative activity ratio (EC root) / Relative activity ratio (EC stalk): relative to FOS. The class given is in vivo. As to the method:
as §1

A further data set deals with Amaranthus retroflexus. Description: Post-emergence herbicidal inhibition assay, AR. Type of data set: in vivo. Conditions: 300 g ai/ha spray, two weeks after treatment; for Loss of Weight (%) AR: fresh weighing. As to the method:
(§2) The post-emergence activity of compounds against EC and Amaranthus retroflexus (AR) was determined at a dose of 300 g ai/ha. The model plants initially grow as seedlings, and a few days prior to treatment, five seedlings with similar growth conditions for the plant were transplanted into one pot containing nutrient soil. The test solutions were prepared by dissolving the compounds in water containing DMF and Tween-80 and sprayed when the plant grew to the 1~2 leaf stage. The herbicidal activity was evaluated via visual observation and fresh weighing after two weeks of treatment.

Data set [2] concerns Echinochloa crus-galli. Description: Post-emergence herbicidal inhibition assay, EC. The settings on record: for Loss of Weight (%) EC / Visual Evaluation EC: 300 g ai/ha spray, two weeks after treatment; for Loss of Weight (%) EC: fresh weighing. Type of data set: in vivo. As to the method:
as §2

The target in data set [3] is recombinant E. coli DXR (EcDXR) (Escherichia coli, UniProt P45568). Briefly: biochemical. Conditions: for inhibition at 100 µM: read-out: InR (%) on DXR enzyme.
recombinant E. coli DXR (EcDXR), sequence (P45568 whole entry): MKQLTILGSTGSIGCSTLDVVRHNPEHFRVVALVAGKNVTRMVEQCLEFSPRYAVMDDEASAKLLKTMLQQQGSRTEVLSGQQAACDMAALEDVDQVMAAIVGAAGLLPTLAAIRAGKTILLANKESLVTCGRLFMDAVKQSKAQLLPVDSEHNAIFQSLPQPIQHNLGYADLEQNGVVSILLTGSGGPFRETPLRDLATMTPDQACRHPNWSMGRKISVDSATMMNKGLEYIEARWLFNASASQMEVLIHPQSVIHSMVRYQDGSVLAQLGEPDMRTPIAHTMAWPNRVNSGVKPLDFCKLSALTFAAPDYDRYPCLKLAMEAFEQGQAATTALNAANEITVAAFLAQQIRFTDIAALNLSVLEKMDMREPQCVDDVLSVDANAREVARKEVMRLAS
For data set [4], the system named is Arabidopsis thaliana. Briefly: Arabidopsis growth inhibition assay (24-well plates, green channel pixel value). The settings on record: for EC50 / pest or weed control at 100 µg/mL: Arabidopsis thaliana, 240 h; for EC50: read-out: EC50 against Arabidopsis growth; for pest or weed control at 100 µg/mL: read-out: InR (%) against Arabidopsis.
Data set [5] has as its system Arabidopsis thaliana. Description: DMAPP rescue on Arabidopsis. Type of data set: in vivo. Conditions: FOS 40 mg/L; for rescue of developmental arrest and bleaching by DMAPP (change of pixel values): 13e 20 mg/L, t-test. As to the method: The DMAPP rescue on Arabidopsis was conducted using the afore-mentioned culture conditions. […] To one of the two species in each group, an additional 150 μg of DMAPP (Aladdin) was added. After 10 days of cultivation, the green channel pixel values of Arabidopsis in each well were measured. A two-tailed paired Student’s t-test was used to compare the two species within the same group, and p < 0.05 indicates a statistically significant difference.

The next data set concerns MtDXR. Further details: method as in PMID 21824775. Conditions: cited from earlier work.
[6] abbreviates: root, 7 days, read-out: EC50 BN Root.
[7] abbreviates: stalk, 7 days, read-out: EC50 BN Stalk.
[8] abbreviates: root, 7 days, read-out: EC50 EC Root.
The mark [9] stands for this setting: stalk, 7 days, read-out: EC50 EC Stalk.

The structures appear in SMILES notation. In brackets after ≈: the same amount, converted by molar mass. Like-named read-outs stand apart in the source and are kept apart here. A value given as a limit tells only on which side of the number the result lay.

The term EC50 denotes the concentration that produces a half-maximal response. As usually defined, the melting point is the temperature of the solid-liquid transition. In turn, `CC1(C)CON(CCCC(P(=O)(O)O)P(=O)(O)O)C1=O` [Compound 20] gave a melting point greater than 250 °C. Also, the EC50 with Brassica napus L. (setting [6]) is 34.6 µg/mL (≈ 104 µM). The concentration giving a half-maximal response (EC50) in the data set with Brassica napus L. (setting [7]) is 8.2 µg/mL (≈ 24.8 µM). Besides, in the data set on Brassica napus L., the “Relative activity ratio (BN root)” value turned out to be 1.0 fold and the “Relative activity ratio (BN stalk)” value was found to be 4.0 fold. For the same compound, in the data set on Echinochloa crus-galli [1] (setting [8]), the concentration giving a half-maximal response (EC50) stood at 40 µg/mL (≈ 121 µM). Moreover, the EC50 in the data set on Echinochloa crus-galli [1] (setting [9]) is 25.2 µg/mL (≈ 76.1 µM). In the data set on Echinochloa crus-galli [1], the “Relative activity ratio (EC root)” value is 1.0 fold and the “Relative activity ratio (EC stalk)” value was found to be 1.5 fold. In addition, in the data set with Amaranthus retroflexus, the “Loss of Weight (%) AR” value was 23.6% and the “Visual Evaluation AR” value was “+ (“+”: ≥20%)”. In the data set with Echinochloa crus-galli [2], the “Loss of Weight (%) EC” value is listed as 22.9% and the “Visual Evaluation EC” value is reported as “+ (“+”: ≥20%)”. In [3], the inhibition at 100 µM is 29.5%. In addition, in the data set with Arabidopsis thaliana [4], the EC50 was greater than 100 µg/mL and the pest or weed control at 100 µg/mL was determined as 47.9%.
As to `O=P(O)(O)C(Cc1c(O)noc1C(F)(F)F)P(=O)(O)O` [Compound 13e], the EC50 in the data set on Brassica napus L. (setting [6]) stood at 10.7 µg/mL (≈ 31.4 µM). The half-maximal effective concentration (EC50) in the data set on Brassica napus L. (setting [7]) came out at 2.3 µg/mL (≈ 6.74 µM). Besides, in the data set on Brassica napus L., the “Relative activity ratio (BN root)” value is given as 3.2 fold and the “Relative activity ratio (BN stalk)” value came to 14.3 fold. Also, the 50% effective concentration (EC50) with Echinochloa crus-galli [1] (setting [8]) was determined as 7.4 µg/mL (≈ 21.7 µM). The EC50 with Echinochloa crus-galli [1] (setting [9]) worked out at 4.1 µg/mL (≈ 12 µM). Further, in the data set on Echinochloa crus-galli [1], the “Relative activity ratio (EC root)” value came to 5.4 fold and the “Relative activity ratio (EC stalk)” value came out at 9.4 fold. Further, in the data set on Amaranthus retroflexus, the “Loss of Weight (%) AR” value came out at 70.3% and the “Visual Evaluation AR” value is “+++ (“+++”: ≥60%)”. Besides, in the data set with Echinochloa crus-galli [2], the “Loss of Weight (%) EC” value is 53.5% and the “Visual Evaluation EC” value is on record as “++ (“++”: ≥40%)”. Moreover, the “fold more active than FOS, inhibition rate on EC via fresh weighing” value in the data set on Echinochloa crus-galli [2] (post-emergence, 300 g ai/ha) came out at 1.0 fold. For the same compound, the “rescue of developmental arrest and bleaching by DMAPP (change of pixel values)” value in the data set on Arabidopsis thaliana [5] (DMAPP 150 mg/L) is on record as “did not show a significant increase”. Moreover, in data set [3], the inhibition at 100 µM came out at 54.9%. Also, in the data set with Arabidopsis thaliana [4], the concentration giving a half-maximal response (EC50) is 7.8 ± 1.2 µg/mL (≈ 22.9 µM) and the pest or weed control at 100 µg/mL is 100%. The “fold inhibitory activity on Arabidopsis relative to FOS” value in the data set with Arabidopsis thaliana [4] (from EC50 values) is 3.7 fold.
`Cc1onc(O)c1CCP(=O)(O)O` [Compound 6a]: the 50% effective concentration (EC50) in the data set with Brassica napus L. (read-out: EC50 BN Root) is 17.3 µg/mL (≈ 83.5 µM). Also, in the data set on Brassica napus L. (read-out: EC50 BN Stalk), the EC50 was determined as 10.5 µg/mL (≈ 50.7 µM). Also, in the data set on Brassica napus L., the “Relative activity ratio (BN root)” value was 2.0 fold and the “Relative activity ratio (BN stalk)” value was determined as 3.1 fold. Further, in the data set on Echinochloa crus-galli [1] (read-out: EC50 EC Root), the EC50 amounted to 24 µg/mL (≈ 116 µM). In addition, the EC50 in the data set with Echinochloa crus-galli [1] (read-out: EC50 EC Stalk) was determined as 18.9 µg/mL (≈ 91.3 µM). Further, in the data set with Echinochloa crus-galli [1], the “Relative activity ratio (EC root)” value is given as 1.7 fold and the “Relative activity ratio (EC stalk)” value was 2.0 fold. In the data set with Amaranthus retroflexus, the “Loss of Weight (%) AR” value is reported as 35.6% and the “Visual Evaluation AR” value is “+ (“+”: ≥20%)”. Besides, in the data set on Echinochloa crus-galli [2], the “Loss of Weight (%) EC” value was determined as 30.8% and the “Visual Evaluation EC” value is reported as “+ (“+”: ≥20%)”. Moreover, the inhibition at 100 µM in data set [3] was determined as 15.8%. In the data set on Arabidopsis thaliana [4], the concentration for a half-maximal effect (EC50) is 28.6 ± 3.9 µg/mL (≈ 138 µM) and the pest or weed control at 100 µg/mL is 90.4%.
A word on the IC50: it is the midpoint of a concentration-inhibition curve. `Cc1onc(O)c1CC(P(=O)(O)O)P(=O)(O)O` [Compound 13a]: in the data set with Brassica napus L. (setting [6]), the EC50 came to 26.9 µg/mL (≈ 93.7 µM). The half-maximal effective concentration (EC50) in the data set on Brassica napus L. (setting [7]) worked out at 8.5 µg/mL (≈ 29.6 µM). In the data set with Brassica napus L., the “Relative activity ratio (BN root)” value was 1.3 fold and the “Relative activity ratio (BN stalk)” value is reported as 3.9 fold. Besides, the concentration giving a half-maximal response (EC50) in the data set on Echinochloa crus-galli [1] (setting [8]) came out at 27.1 µg/mL (≈ 94.4 µM). The 50% effective concentration (EC50) in the data set with Echinochloa crus-galli [1] (setting [9]) was found to be 10.2 µg/mL (≈ 35.5 µM). Also, in the data set on Echinochloa crus-galli [1], the “Relative activity ratio (EC root)” value was 1.5 fold and the “Relative activity ratio (EC stalk)” value stood at 3.8 fold. Also, in the data set with Amaranthus retroflexus, the “Loss of Weight (%) AR” value turned out to be 52.3% and the “Visual Evaluation AR” value is reported as “++ (“++”: ≥40%)”. Besides, in the data set with Echinochloa crus-galli [2], the “Loss of Weight (%) EC” value came to 35.8% and the “Visual Evaluation EC” value was “+ (“+”: ≥20%)”. Further, in data set [3], the IC50 amounted to 77.9 µM and the inhibition at 100 µM came to 60.2%. Besides, in the data set with Arabidopsis thaliana [4], the EC50 came to 21.6 ± 3.8 µg/mL (≈ 75.2 µM) and the pest or weed control at 100 µg/mL was found to be 100%.
As to `O=CN(O)CCCP(=O)(O)O` [FOS, Fosmidomycin, reference compound], the EC50 was 34.7 µg/mL (≈ 190 µM) with Brassica napus L. (setting [6]); 32.9 µg/mL (≈ 180 µM) in the data set with Brassica napus L. (setting [7]); 40.2 µg/mL (≈ 220 µM) with Echinochloa crus-galli [1] (setting [8]); 38.4 µg/mL (≈ 210 µM) in the data set with Echinochloa crus-galli [1] (setting [9]); 27.5 ± 3.1 µg/mL (≈ 150 µM) with Arabidopsis thaliana [4]. For the same compound, the “Loss of Weight (%) AR” value with Amaranthus retroflexus amounted to 31.5%. The “Visual Evaluation AR” value in the data set on Amaranthus retroflexus is given as “+ (“+”: ≥20%)”. Moreover, in the data set on Echinochloa crus-galli [2], the “Loss of Weight (%) EC” value stood at 27.4%. For the same compound, the “Visual Evaluation EC” value in the data set on Echinochloa crus-galli [2] is “+ (“+”: ≥20%)”. Besides, the “rescue of developmental arrest and bleaching by DMAPP (change of pixel values)” value in the data set with Arabidopsis thaliana [5] (DMAPP 150 mg/L) is reported as “rescued”. The “green channel pixel value of Arabidopsis images, without DMAPP” value with Arabidopsis thaliana [5] (10 days) was 32,789. The “green channel pixel value of Arabidopsis images, with DMAPP” value in the data set with Arabidopsis thaliana [5] (DMAPP 150 mg/L, 10 days) was 54,164. Moreover, in the data set with MtDXR, the half-maximal inhibitory concentration (IC50) is 0.08 µM. For the same compound, the inhibition at 100 µM in [3] stood at 98.7%. In addition, in the data set on Arabidopsis thaliana [4], the pest or weed control at 100 µg/mL stood at 86.8%.
Turning to `CC(C)c1onc(O)c1CC(P(=O)(O)O)P(=O)(O)O` [Compound 13d], in the data set on Brassica napus L. (setting [6]), the EC50 was determined as 25.2 µg/mL (≈ 80 µM). Also, in the data set with Brassica napus L. (setting [7]), the EC50 stood at 11 µg/mL (≈ 34.9 µM). In the data set with Brassica napus L., the “Relative activity ratio (BN root)” value is given as 1.4 fold and the “Relative activity ratio (BN stalk)” value is 3.0 fold. In addition, the concentration for a half-maximal effect (EC50) in the data set on Echinochloa crus-galli [1] (setting [8]) stood at 27.2 µg/mL (≈ 86.3 µM). The EC50 with Echinochloa crus-galli [1] (setting [9]) stood at 13.5 µg/mL (≈ 42.8 µM). Besides, in the data set on Echinochloa crus-galli [1], the “Relative activity ratio (EC root)” value came out at 1.5 fold and the “Relative activity ratio (EC stalk)” value was found to be 2.8 fold. Besides, in the data set on Amaranthus retroflexus, the “Loss of Weight (%) AR” value is recorded as 45.7% and the “Visual Evaluation AR” value was “++ (“++”: ≥40%)”. Further, in the data set on Echinochloa crus-galli [2], the “Loss of Weight (%) EC” value was found to be 34.9% and the “Visual Evaluation EC” value was “+ (“+”: ≥20%)”. In data set [3], the inhibition at 100 µM came to 14%. Moreover, in the data set on Arabidopsis thaliana [4], the EC50 was 23.1 ± 1.9 µg/mL (≈ 73.3 µM) and the pest or weed control at 100 µg/mL stood at 93.2%.
